# Experimental data from paper PMC4191602 (Journal of Medicinal Chemistry, 2014).
# What was measured:
# [1] = target: Influenza A endonuclease (pandemic H1N1 endonuclease, residues 1–204) (Influenza A virus, UniProt C3W5S0); type: biochemical
# [2] = tested on: influenza A endonuclease; conditions: earlier studies with phenyl substituted 3-hydroxypyridin-2(1H)-ones; cited from earlier work
smiles,measurement,setting,value
"O=c1[nH]cnc(-c2ccc(F)cc2)c1O [compound 2, 6-(4-Fluorophenyl)-5-hydroxypyrimidin-4(3H)-one]",activity as an endonuclease inhibitor (in words),[1],lack of activity
"N#Cc1cccc(-c2ncc(O)c(=O)[nH]2)c1 [compound 10, 3-(5-Hydroxy-6-oxo-1,6-dihydropyrimidin-2-yl)benzonitrile]",potency compared to the 4-cyanophenyl isomer 9,[1],approximately twice as potent
"O=c1[nH]cc(-c2ccc(F)cc2)[nH]c1=O [compound 1, 5-(4-Fluorophenyl)pyrazine-2,3(1H,4H)-dione]",activity as an endonuclease inhibitor (in words),[1],comparatively weak activity
same,less potent than either 5- or 6-(4-fluorophenyl)-3-hydroxypyridin-2(1H)-one,[1],more than 80 times
"O=c1[nH]ncc(-c2ccc(F)cc2)c1O [compound 13, 5-(4-Fluorophenyl)-4-hydroxypyridazin-3(2H)-one]",activity as an endonuclease inhibitor (in words),[1],did not exhibit significant activity
O=c1[nH]ccc(-c2ccc(F)cc2)c1O [4-(4-fluorophenyl)-3-hydroxypyridin-2(1H)one],activity as endonuclease inhibitor (in words),[2],did not exhibit significant activity
"O=c1[nH]c(-c2ccc(-c3nnn[nH]3)cc2)ncc1O [compound 11, 2-(4-(1H-Tetrazol-5-yl)phenyl)-5-hydroxypyrimidin-4(3H)-one]",potency relative to the 3-(tetrazoly)phenyl derivative 12,[1],3 fold
